Assay results taken from US20130157954A1, “METHODS FOR TREATMENT OR PROPHYLAXIS OF KIDNEY OR LIVER DYSFUNCTION” (NPS PHARMACEUTICALS, INC., priority 2010, published 2013).

Experiment: Example 1: liver biomarkers (total bilirubin, ALT, AST, ALP) in short bowel syndrome patients, every four weeks for 24 weeks; also sorted by >5% change from baseline
Format: in vivo, Human
Conditions: for ALT (SGPT) change from baseline >5%, percent of patients / ALT (SGPT) change from baseline −5% <= and <=5%, number of patients / ALT (SGPT) change from baseline −5% <= and <=5%, percent of patients / AST (SGOT) change from baseline <−5%, number of patients / AST (SGOT) change from baseline <−5%, percent of patients / AST (SGOT) change from baseline >5%, number of patients / AST (SGOT) change from baseline >5%, percent of patients / AST (SGOT) change from baseline −5% <= and <=5%, number of patients / AST (SGOT) change from baseline −5% <= and <=5%, percent of patients / TOTAL BILIRUBIN change from baseline <−5%, number of patients / TOTAL BILIRUBIN change from baseline <−5%, percent of patients / TOTAL BILIRUBIN change from baseline >5%, number of patients / TOTAL BILIRUBIN change from baseline >5%, percent of patients / TOTAL BILIRUBIN change from baseline −5% <= and <=5%, number of patients / TOTAL BILIRUBIN change from baseline −5% <= and <=5%, percent of patients / ALKALINE PHOSPHATASE change from baseline <−5%, number of patients / ALKALINE PHOSPHATASE change from baseline <−5%, percent of patients / ALKALINE PHOSPHATASE change from baseline >5%, number of patients / ALKALINE PHOSPHATASE change from baseline >5%, percent of patients / ALKALINE PHOSPHATASE change from baseline −5% <= and <=5%, number of patients / ALKALINE PHOSPHATASE change from baseline −5% <= and <=5%, percent of patients / ALT (SGPT) change from baseline <−5%, number of patients / ALT (SGPT) change from baseline <−5%, percent of patients / ALT (SGPT) change from baseline >5%, number of patients: 0.1 mg/kg/day
Experimental: Human patients with short bowel syndrome were divided into three groups: a control group (16 total individuals) to receive placebo, an experimental group (35 total individuals) to receive teduglutide at 0.05 mg/kg/day throughout the study, and an experimental group (32 total individuals) to receive teduglutide at 0.1 mg/kg/day throughout the study. Patients were treated by subcutaneous injection of placebo or the appropriate dose of teduglutide. As individuals with short bowel syndrome are likely to experience associated liver and kidney disease, known biomarkers of liver and kidney function were monitored every four weeks, for 24 weeks. The liver biomarkers tested included total bilirubin, ALT and AST and ALP. The kidney biomarkers tested included urea nitrogen, creatinine and GFR. Before administration of placebo or teduglutide, diagnostic biomarker levels were tested to establish a baseline for each individual.
To visualize the effect of GLP-2 on the levels of the diagnostic biomarkers, the average change from baseline was calculated for the placebo and teduglutide treated groups for each visit after a baseline was established. The average change from baseline of each group is depicted in FIGS. 1-7. The numerical figures for each diagnostic biomarker at each time point are depicted in Table 1.
The efficacy of teduglutide in treating liver dysfunction was further tested by sorting the data into two groups: individuals with abnormal baseline values of liver diagnostic biomarkers; and individuals with normal baseline values of liver diagnostic biomarkers. The mean diagnostic biomarker change from baseline for these two groups is shown for ALT (FIGS. 5 and 6) and AST (FIGS. 7 and 8). […] These changes were significant when compared to baseline levels for the group, and when compared to placebo (see FIGS. 5 and 7).
The raw data for this sorting is reproduced in Table 2 below.

## CC[C@H](C)[C@H](NC(=O)[C@H](Cc1ccccc1)NC(=O)[C@H](CC(=O)O)NC(=O)[C@H](CCCNC(=N)N)NC(=O)[C@H](C)NC(=O)[C@H](C)NC(=O)[C@H](CC(C)C)NC(=O)[C@H](CC(N)=O)NC(=O)[C@H](CC(=O)O)NC(=O)[C@H](CC(C)C)NC(=O)[C@@H](NC(=O)[C@@H](NC(=O)[C@H](CC(N)=O)NC(=O)[C@H](CCSC)NC(=O)[C@H](CCC(=O)O)NC(=O)[C@H](CC(=O)O)NC(=O)[C@H](CO)NC(=O)[C@H](Cc1ccccc1)NC(=O)[C@H](CO)NC(=O)CNC(=O)[C@H](CC(=O)O)NC(=O)CNC(=O)[C@@H](N)Cc1c[nH]cn1)[C@@H](C)O)[C@@H](C)CC)C(=O)N[C@@H](CC(N)=O)C(=O)N[C@@H](Cc1c[nH]c2ccccc12)C(=O)N[C@@H](CC(C)C)C(=O)N[C@H](C(=O)N[C@@H](CCC(N)=O)C(=O)N[C@H](C(=O)N[C@@H](CCCCN)C(=O)N[C@H](C(=O)N[C@H](C(=O)N[C@@H](CC(=O)O)C(=O)O)[C@@H](C)O)[C@@H](C)CC)[C@@H](C)O)[C@@H](C)CC [teduglutide]
Week 12
  ALT (SGPT) change from baseline >5%, percent of patients: (21.9%)
  ALT (SGPT) change from baseline −5% <= and <=5%, number of patients: 2
  ALT (SGPT) change from baseline −5% <= and <=5%, percent of patients: (6.3%)
  AST (SGOT) change from baseline <−5%, number of patients: 15
  AST (SGOT) change from baseline <−5%, percent of patients: (46.9%)
  AST (SGOT) change from baseline >5%, number of patients: 10
  AST (SGOT) change from baseline >5%, percent of patients: (31.3%)
  AST (SGOT) change from baseline −5% <= and <=5%, number of patients: 3
  AST (SGOT) change from baseline −5% <= and <=5%, percent of patients: (9.4%)
  TOTAL BILIRUBIN change from baseline <−5%, number of patients: 14
  TOTAL BILIRUBIN change from baseline <−5%, percent of patients: (43.8%)
  TOTAL BILIRUBIN change from baseline >5%, number of patients: 9
  TOTAL BILIRUBIN change from baseline >5%, percent of patients: (28.1%)
  TOTAL BILIRUBIN change from baseline −5% <= and <=5%, number of patients: 6
  TOTAL BILIRUBIN change from baseline −5% <= and <=5%, percent of patients: (18.8%)
Week 16
  ALKALINE PHOSPHATASE change from baseline <−5%, number of patients: 21
  ALKALINE PHOSPHATASE change from baseline <−5%, percent of patients: (65.6%)
  ALKALINE PHOSPHATASE change from baseline >5%, number of patients: 7
  ALKALINE PHOSPHATASE change from baseline >5%, percent of patients: (21.9%)
  ALKALINE PHOSPHATASE change from baseline −5% <= and <=5%, number of patients: 2
  ALKALINE PHOSPHATASE change from baseline −5% <= and <=5%, percent of patients: (6.3%)
  ALT (SGPT) change from baseline <−5%, number of patients: 19
  ALT (SGPT) change from baseline <−5%, percent of patients: (59.4%)
  ALT (SGPT) change from baseline >5%, number of patients: 9
  ALT (SGPT) change from baseline >5%, percent of patients: (28.1%)
  ALT (SGPT) change from baseline −5% <= and <=5%, number of patients: 2
  ALT (SGPT) change from baseline −5% <= and <=5%, percent of patients: (6.3%)
  AST (SGOT) change from baseline <−5%, number of patients: 18
  AST (SGOT) change from baseline <−5%, percent of patients: (56.3%)
  AST (SGOT) change from baseline >5%, number of patients: 8
  AST (SGOT) change from baseline >5%, percent of patients: (25.0%)
  AST (SGOT) change from baseline −5% <= and <=5%, number of patients: 3
  AST (SGOT) change from baseline −5% <= and <=5%, percent of patients: (9.4%)
  TOTAL BILIRUBIN change from baseline <−5%, number of patients: 14
  TOTAL BILIRUBIN change from baseline <−5%, percent of patients: (43.8%)
  TOTAL BILIRUBIN change from baseline >5%, number of patients: 6
  TOTAL BILIRUBIN change from baseline >5%, percent of patients: (18.8%)
  TOTAL BILIRUBIN change from baseline −5% <= and <=5%, number of patients: 8
  TOTAL BILIRUBIN change from baseline −5% <= and <=5%, percent of patients: (25.0%)
Week 20
  ALKALINE PHOSPHATASE change from baseline <−5%, number of patients: 19
  ALKALINE PHOSPHATASE change from baseline <−5%, percent of patients: (59.4%)
  ALKALINE PHOSPHATASE change from baseline >5%, number of patients: 9
  ALKALINE PHOSPHATASE change from baseline >5%, percent of patients: (28.1%)
  ALKALINE PHOSPHATASE change from baseline −5% <= and <=5%, number of patients: 1
  ALKALINE PHOSPHATASE change from baseline −5% <= and <=5%, percent of patients: (3.1%)
  ALT (SGPT) change from baseline <−5%, number of patients: 19
  ALT (SGPT) change from baseline <−5%, percent of patients: (59.4%)
  ALT (SGPT) change from baseline >5%, number of patients: 8
  ALT (SGPT) change from baseline >5%, percent of patients: (25.0%)
  ALT (SGPT) change from baseline −5% <= and <=5%, number of patients: 2
  ALT (SGPT) change from baseline −5% <= and <=5%, percent of patients: (6.3%)
  AST (SGOT) change from baseline <−5%, number of patients: 16
  AST (SGOT) change from baseline <−5%, percent of patients: (50.0%)
  AST (SGOT) change from baseline >5%, number of patients: 9
  AST (SGOT) change from baseline >5%, percent of patients: (28.1%)
  AST (SGOT) change from baseline −5% <= and <=5%, number of patients: 3
  AST (SGOT) change from baseline −5% <= and <=5%, percent of patients: (9.4%)
  TOTAL BILIRUBIN change from baseline <−5%, number of patients: 14
  TOTAL BILIRUBIN change from baseline <−5%, percent of patients: (43.8%)
  TOTAL BILIRUBIN change from baseline >5%, number of patients: 9
  TOTAL BILIRUBIN change from baseline >5%, percent of patients: (28.1%)
  TOTAL BILIRUBIN change from baseline −5% <= and <=5%, number of patients: 6
  TOTAL BILIRUBIN change from baseline −5% <= and <=5%, percent of patients: (18.8%)
Week 24
  ALKALINE PHOSPHATASE change from baseline <−5%, number of patients: 20
  ALKALINE PHOSPHATASE change from baseline <−5%, percent of patients: (62.5%)
  ALKALINE PHOSPHATASE change from baseline >5%, number of patients: 5
  ALKALINE PHOSPHATASE change from baseline >5%, percent of patients: (15.6%)
  ALKALINE PHOSPHATASE change from baseline −5% <= and <=5%, number of patients: 4
  ALKALINE PHOSPHATASE change from baseline −5% <= and <=5%, percent of patients: (12.5%)
  ALT (SGPT) change from baseline <−5%, number of patients: 18
  ALT (SGPT) change from baseline <−5%, percent of patients: (56.3%)
  ALT (SGPT) change from baseline >5%, number of patients: 11
  ALT (SGPT) change from baseline >5%, percent of patients: (34.4%)
  ALT (SGPT) change from baseline −5% <= and <=5%, number of patients: 0
  ALT (SGPT) change from baseline −5% <= and <=5%, percent of patients: (0.0%)
  AST (SGOT) change from baseline <−5%, number of patients: 15
  AST (SGOT) change from baseline <−5%, percent of patients: (46.9%)
  AST (SGOT) change from baseline >5%, number of patients: 11
  AST (SGOT) change from baseline >5%, percent of patients: (34.4%)
  AST (SGOT) change from baseline −5% <= and <=5%, number of patients: 3
  AST (SGOT) change from baseline −5% <= and <=5%, percent of patients: (9.4%)
  TOTAL BILIRUBIN change from baseline <−5%, number of patients: 11
  TOTAL BILIRUBIN change from baseline <−5%, percent of patients: (34.4%)
  TOTAL BILIRUBIN change from baseline >5%, number of patients: 10
  TOTAL BILIRUBIN change from baseline >5%, percent of patients: (31.3%)
  TOTAL BILIRUBIN change from baseline −5% <= and <=5%, number of patients: 6
  TOTAL BILIRUBIN change from baseline −5% <= and <=5%, percent of patients: (18.8%)
Beginning at 4 weeks after the commencement of treatment
  fraction of individuals with a decrease of more than 5% in ALT vs placebo: greater fraction of individuals experiencing a decrease of more than 5%
Compared to baseline and compared to placebo
  ALT and AST change from baseline in patients with abnormal baseline values (FIGS. 5 and 7): statistically significant improvements
Groups receiving teduglutide
  average level of ALP relative to baseline (FIG. 4): decreased relative to baseline for the entire period of the study
  percent of individuals with an increase of greater than 5% in ALP or ALT vs placebo: effective prophylactic against increases in biomarkers associated with liver dysfunction
Groups receiving teduglutide, within 4 weeks of the beginning of treatment
  individuals experiencing a decrease in ALP greater than 5% from baseline: roughly 60%
Groups receiving teduglutide, maintained for the entire duration of the study
  average decrease in level of ALT compared to baseline (FIG. 1): about 10 U/L
